From publication PMC12563652 (International Journal of Molecular Sciences, 2025) come the findings set out here.

Entries after “also recorded” stand apart in the source; their conditions may differ. Read-outs that look alike come from different tables or passages of the source.

One data set has as its target T1, human TAAR1 (Homo sapiens, UniProt Q96RJ0).
T1 sequence (Q96RJ0 1-339): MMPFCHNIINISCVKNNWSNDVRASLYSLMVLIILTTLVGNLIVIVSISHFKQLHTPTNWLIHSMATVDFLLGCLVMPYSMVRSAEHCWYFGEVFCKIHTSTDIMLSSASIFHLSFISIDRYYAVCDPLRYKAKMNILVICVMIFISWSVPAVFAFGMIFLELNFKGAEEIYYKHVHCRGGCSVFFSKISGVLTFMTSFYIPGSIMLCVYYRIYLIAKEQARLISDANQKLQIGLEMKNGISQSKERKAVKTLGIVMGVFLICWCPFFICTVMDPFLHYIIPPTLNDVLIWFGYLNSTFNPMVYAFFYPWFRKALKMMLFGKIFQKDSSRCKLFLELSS
Description: TAAR1 agonist activity, Hit Hunter cAMP assay. The data set is classed as cell-based.

For the next data set, the target named is α1-adrenoceptor. Description: Competitive radioligand binding, [3H]prazosin, rat cerebral cortex. The settings on record: n.a. = no activity at 10–5 M. The protocol:
The competitive radioligand-binding assay assessed affinity for α1- and α2-adrenoceptors. Experiments were carried out in the rat cerebral cortex. […] The membrane preparation and assay technique followed the previously reported protocol. Radioactivity was measured using the MicroBeta2 scintillation counter (PerkinElmer, Kraków, Poland). The data was adjusted to match a single-site curve-fitting formula using Prism 8 (GraphPad Software, La Jolla, CA, USA), and the Ki values were estimated by means of the Cheng–Prusoff formula.

The next data set deals with α2-adrenoceptor. Description: Competitive radioligand binding, [3H]clonidine, rat cerebral cortex. The note with it: n.a. = no activity at 10–5 M.
The next data set has as its system HepG2 cells. Description: Glucose consumption (Amplex Red assay) in HepG2 cells. It is filed as cell-based, human. The protocol: The HepG2 human hepatocellular carcinoma cell line (ATCC® HB-8065™) was cultured in DMEM supplemented with 10% FBS, 100 µg/mL streptomycin, and 100 IU/mL penicillin at 37 °C in 5% CO2. Cells were seeded in 96-well plates at a density of 10,000 cells/well and used for experiments 24 h after plating.
Stock solutions of test compounds were prepared at a concentration of 10 mM in dimethyl sulfoxide (DMSO). At least 1 mg of each substance was carefully measured and mixed with the right amount of DMSO. A series of dilutions were made in DMSO and then further diluted in phosphate-buffered saline before being introduced into the cell culture medium. Precipitation or opalescence was assessed prior to application.
The glucose uptake was measured with the Amplex® Red Glucose/Glucose Oxidase Assay Kit from Thermo Fisher Scientific, following the guidelines provided by the maker. Cell culture supernatants were collected and incubated with a reaction mix containing 100 μM Amplex® Red reagent, 0.2 U/mL horseradish peroxidase (HRP), and 1 U/mL glucose oxidase at room temperature for 30 min in the dark. Fluorescence was measured at 530 nm excitation and 590 nm emission using the POLARstar Omega plate reader (BMG Labtech).

Another data set relates to 3T3L1 cell line. The data set is classed as cell-based. The note with it: mouse, 24 h. The method, then: (§1) Prior to investigating the biological activity and molecular characteristics of the test compounds in vitro, a comprehensive cytotoxicity screening was performed using HepG2 and 3T3-L1 cell lines. Two complementary assays were applied: one based on the quantification of adenylate kinase release as an indicator of cell membrane damage, and another relying on resazurin reduction to assess cellular metabolic activity. These complementary assays enable sensitive and reliable detection of cytotoxic effects across diverse cell types. This preliminary assessment was carried out to ensure that subsequent functional analyses would not be confounded by nonspecific cytotoxic effects.
(§2) The damage of cell membrane was evaluated with the ToxiLight BioAssay Kit from Lonza (Visp, Switzerland). This test is very sensitive and measures cell damage by looking at the release of adenylate kinase (AK). After 24 h of treatment, 5 µL of culture supernatant was transferred to a 384-well white plate (PerkinElmer, Singapore), followed by the addition of 20 µL of Adenylate Kinase Detection Reagent (AKDR). After a 10 min incubation at room temperature, luminescence was measured using the POLARstar Omega plate reader (BMG Labtech, Ortenberg, Germany). Results were expressed as a percentage relative to a lysed control (100% cell death).

The subject of data set [1] is HEPG2 cell line. The data set is classed as cell-based. The settings on record: human, 24 h. The method, then:
as §1, §2

The test system of data set [2] is HEPG2 cell line. In words: Cell viability assay (PrestoBlue, metabolic function), HepG2. The data set is classed as cell-based, human. The note with it: 24 h, mean. The protocol:
as §1
Cell viability was measured using PrestoBlue reagent (Thermo Fisher Scientific, Waltham, MA, USA), following the manufacturer’s instructions. After 24 h of compound treatment, PrestoBlue reagent was added to each well at 10% of the remaining medium volume. The plate was incubated at 37 °C for 15 min, and fluorescence was measured using the POLARstar Omega plate reader (excitation 530 nm, emission 580 nm). Results were expressed as a percentage of viable cells relative to the DMSO-treated control.

A further data set has as its system Danio rerio larvae. Description: In vivo toxicity assay in zebrafish larvae (Casper and ABTL lines). The protocol:
To determine the toxicity of JP-14 to zebrafish larvae, 76 h post-fertilized (hpf) larvae ([…], ten per well) were kept in a 6-well plate and exposed to three concentrations of compound JP-14 diluted with embryonic medium (E3), whereas untreated larvae served as control (E3 alone). Each concentration was incubated in twelve wells. The mortality rate and disturbances were determined using a microscope (OPTA-TECH MN16, Warszawa, Poland) after 24 h of exposure.

Data set [3] relates to platelet aggregation in rat whole blood. Description: In vitro collagen-induced platelet aggregation in rat whole blood (impedance aggregometry). It is filed as cell-based. The note with it: 50–200 µM, collagen 1.6 µg/mL. The method, then:
In vitro platelet aggregation assays were conducted using freshly collected whole blood from rats, utilizing the Multiplate platelet function analyzer (Roche Diagnostics, Mannheim, Germany)—a five-channel device that measures electrical impedance, following methods described previously. Upon stimulation, platelets adhere to and aggregate on dual metal sensors within the test cuvette, causing an increase in electrical resistance, which corresponds to the number of platelets attached to the electrodes.
Blood was collected from the carotid artery of the rat into tubes coated with hirudin (S-Monovette, Sarstedt, Germany). A volume of 300 μL of the anticoagulated blood was mixed with 300 μL of prewarmed isotonic saline that contained the test compound or a vehicle control (0.1% DMSO) and incubated at 37 °C for 3 min under continuous stirring. Aggregation was triggered by adding collagen (final concentration: 1.6 µg/mL). Platelet activity was monitored for 6 min. Multiplate V2.04 software calculated the area under the curve (AUC) for each measurement to determine average platelet response.

In the case of `[H]/N=C(\N)NN=Cc1c(Cl)cncc1Cl` [JP-14, (E)-2-((3,5-Dichloropyridin-4-yl)Methylene)Hydrazine-1-Carboximidamide], the “maximum cell stimulation (cAMP level) compared with the highest concentration of tyramine” value at human TAAR1 (TAAR1-expressing cells) is recorded as “about twice as high”. The EC50 on human TAAR1 (cAMP accumulation, n.a. = no activity at 10–5 M, read-out: TAAR1 Ago EC50) came out at 11.3 ± 1.4 µM. Further, on α1-adrenoceptor, the “α1 Ki” value is reported as “did not exhibit notable affinity”. The Ki at α2-adrenoceptor was 0.126 ± 0.027 µM. Besides, in the data set with HepG2 cells (10 µM + RTI-7470-44 (40 nM)), the “glucose-stimulating effect under TAAR1 blockade” value was “substantially attenuated”. In addition, the “increase in glucose consumption (uptake)” value with HepG2 cells (10 µM, relative to vehicle-treated cells) is on record as 29%. The “membrane integrity, percentage relative to control (death cells)” value worked out at 6% in the data set on 3T3L1 cell line (0.1 μM); 6% in the data set with 3T3L1 cell line (1 μM); 5% in the data set on 3T3L1 cell line (10 μM); 4% in the data set on 3T3L1 cell line (50 μM); 5% with 3T3L1 cell line (100 μM); 6% with HEPG2 cell line [1] (0.1 μM). The “membrane integrity, percentage relative to control (death cells)” value is 6% with HEPG2 cell line [1] (1 μM), 6% with HEPG2 cell line [1] (10 μM), 10% in the data set with HEPG2 cell line [1] (50 μM) and 8% with HEPG2 cell line [1] (100 μM). The “cellular metabolic function, percentage relative to control (live cells)” value amounted to 96% with HEPG2 cell line [2] (Table S4, 0.1 μM); 101% in the data set on HEPG2 cell line [2] (Table S4, 1 μM); 95% with HEPG2 cell line [2] (Table S4, 10 μM); 71% in the data set on HEPG2 cell line [2] (Table S4, 50 μM); 60% in the data set with HEPG2 cell line [2] (Table S4, 100 μM). Further, in the data set on Danio rerio larvae, the effect on pigmentation result is reported as “no effect on pigmentation was observed”. Further, the “concentration not causing any visible disturbances” value with Danio rerio larvae (Casper and AB/TL lines, zebrafish (Danio rerio), 24 h) stood at 10000 ng/mL. Also, in [3], the “effect on collagen-induced platelet aggregation” value is “did not alter; also recorded: did not influence”.
